The source of these data is patent US8357701B2, “Galactokinase inhibitors” (University of Miami, priority 2007, dated 2013).

Molecules are shown by their SMILES.

Holding throughout (assay type): biochemical
The target of assay [1] is T1, human GALK (Homo sapiens, UniProt P51570).
T1 construct: made in house; host or cells: Escherichia coli HMS174 (DE3), plasmid pET15b
Nature of the assay: standard pyruvate kinase/lactate dehydrogenase-coupled GALK assay. The settings on record: dose response, FIG. 7; values somewhat lower than in the luminescence assay; no numbers given. An excerpt: As the percentage of substrate conversion can have significant impact on the accuracy of IC50 determination, the preferred approach is to determine reaction rates at initial velocity (i.e., zero substrate conversion). […] In this assay, the amount of galactose present in the reaction is kept in excess, whereas ATP consumed by the galactokinase reaction is recycled by the pyruvate kinase reaction.
As the percentage of substrate conversion can have significant impact on the accuracy of IC50 determination, the preferred approach is to determine reaction rates at initial velocity (i.e., zero substrate conversion). […] The dose response of the selected compounds was analyzed using the standard pyruvate kinase/lactate dehydrogenase-Coupled assay. In this assay, the amount of galactose present in the reaction was kept in excess, whereas ATP consumed by the galactokinase reaction was recycled by the pyruvate kinase reaction.

In assay [2] the target is T2, purified recombinant E. coli CDP-ME kinase (Escherichia coli, UniProt P62615).
T2 construct: made in house; host or cells: E. coli HMS174
T2 sequence (P62615 1-283): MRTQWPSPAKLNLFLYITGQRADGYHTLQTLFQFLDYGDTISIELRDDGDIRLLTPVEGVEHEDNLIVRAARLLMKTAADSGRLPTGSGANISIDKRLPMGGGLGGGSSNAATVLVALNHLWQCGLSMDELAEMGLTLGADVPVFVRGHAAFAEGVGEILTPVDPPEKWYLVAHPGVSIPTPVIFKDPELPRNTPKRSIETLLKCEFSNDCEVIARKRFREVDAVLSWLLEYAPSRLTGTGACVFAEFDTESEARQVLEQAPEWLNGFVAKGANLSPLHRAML
Nature of the assay: CDP-ME kinase assay (luminescence-based). To be noted: CDP-ME as substrate; increasing compound concentration; FIG. 10B.
Procedure: Detailed Protocol for CDP-ME Kinase Assay
Protocol: Mix I was prepared using 1 microL for MVK. If dilutions are to be made, dilute in 1× buffer to 1 microL. Mix II was prepared just before use, as CMP-ME and ATP may deteriorate. Final CMP-ME concentration was chosen at 50 microM for the sake of economics and kept on ice until it was dispensed.
At least 4 replicates per condition were used in the experiment. Mix I was dispensed on the plate with a pipette. Mix II was then added and the plate covered with foil. The plates was incubated at 37° C. for 15 minutes and Kinase-Glo® (Promega, Madison Wis.) was added, the plate covered with foil, and incubated at RT for 15 minutes. Measurements were taken as described for the GALK protocol, the data were plotted and the enzyme concentration with reading within linear range just above baseline was selected.
Protocol to test for inhibition: Compound stored at −80° C. was slowly thawed. Stock was at 10 mM concentration.
These were incubated for 1 hour with MVK. Each dilution was then be pipetted into wells (40 microL each). 20 microL of Mix II was added to each well and covered with foil. The plates were incubated at 37° C., for 15 minutes, then Kinase-Glo® (Promega, Madison, Wis.) was added, plates were covered with foil, and incubated at room temperature (RT) for 15 minutes. The data was plotted and the IC50 was calculated.

Assay [3] concerns the target T3, human galactokinase (GALK) (Homo sapiens, UniProt P51570).
T3 construct: made in house; host or cells: Escherichia coli HMS174 (DE3), plasmid pET15b
As to the kind of experiment: two-step luminescence-based (Kinase-Glo) high-throughput GALK assay. To be noted: ATP-γ-S from 0 to 13.3 μM, ATP constant at 5 μM; FIG. 3C. The method, then:
Using the Kinase-Glo™ reagent (Promega, Madison, Wis.), a miniaturized, two-step HTS assay for GALK was developed. […] After 60 minutes at room temperature (22° C.), 30 μL of Kinase Glo™ (Promega) was added, and luminescence was measured within 30 min using an Envision Multilabel Plate Reader (Perkin Elmer). In the course of 12 days, nearly 50,000 compounds from various libraries of small molecules with diverse structural scaffolds were screened for their inhibitory properties of GALK activity in vitro. […] The reaction was then allowed to proceed at room temperature (22° C.) for 60 min. Then, 30 μL of Kinase-Glo™ was added to stop the reaction, and luminescence was measured 15 to 30 min later using the Envision Multilabel Plate Reader (PerkinElmer). 50,000 small molecules were screened, in duplicate, for inhibitory properties against purified GALK. […] In short, duplicate luminescence measurements were corrected for background measurements using the method described by Seiler et al. (Nucl. Acids Res 2007). […] After 60 min at room temperature (22° C.), 30 μL of Kinase-Glo™ was added, and luminescence was measured within 30 min using an Envision Multilabel Plate Reader (PerkinElmer, Waltham, Mass.). […] Then, 30 μl of Kinase-Glo™ was added to stop the reaction, and luminescence was measured 15 to 30 min later using the Envision Multilabel Plate Reader (PerkinElmer). […]
For orientation: Kinase-Glo measures the ATP left after a reaction by luminescence.

T1 sequence (P51570 whole entry): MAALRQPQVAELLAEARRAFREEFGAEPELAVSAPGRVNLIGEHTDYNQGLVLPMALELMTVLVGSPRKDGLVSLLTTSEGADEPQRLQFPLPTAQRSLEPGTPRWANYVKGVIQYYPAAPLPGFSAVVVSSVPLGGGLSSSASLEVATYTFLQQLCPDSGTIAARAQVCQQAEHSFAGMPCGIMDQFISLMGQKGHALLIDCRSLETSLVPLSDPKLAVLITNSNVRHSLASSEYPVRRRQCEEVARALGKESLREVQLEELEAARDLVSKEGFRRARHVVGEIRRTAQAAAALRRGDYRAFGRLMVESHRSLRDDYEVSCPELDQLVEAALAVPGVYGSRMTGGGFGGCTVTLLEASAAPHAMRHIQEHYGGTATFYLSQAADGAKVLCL
T3 sequence (P51570 whole entry): as above

`CC1(c2ccccc2)CC(C)(C)N2C(=O)/C(=C3/SC(=O)NC3=O)c3cccc1c32` (stereo not drawn) [compound 3]: in assay [1], the “IC50 values confirmed in coupled assay” value is reported as “confirmed”.

On to `COC1=C(N)C(=O)c2nc(-c3nc(C(=O)O)c(C)c(-c4ccc(OC)c(OC)c4O)c3N)ccc2C1=O` [compound 24, Streptonigrin], for which the “IC50 values confirmed in coupled assay” value in assay [1] was “confirmed”.

Regarding `Oc1c(Cl)cc(Cl)c(Cl)c1Cc1c(O)c(Cl)cc(Cl)c1Cl` [compound 9, Hexachlorophene], the “inhibition of E. coli CDP-ME kinase” value in assay [2] is given as “inhibits E. coli CDP-ME kinase”. In addition, in assay [1], the “IC50 values confirmed in coupled assay” value is “confirmed”.

For the compound `Nc1ncnc2c1ncn2[C@@H]1O[C@H](COP(=O)(O)OP(=O)(O)OP(O)(O)=S)[C@@H](O)[C@H]1O` [ATP-γ-S, adenosine 5′-O-(3-thio-)triphosphate], the “inhibition of GALK activity by ATP mimetic” value in assay [3] was “acted as a GALK inhibitor”.

Turning to `CC(C)(C)C(=O)Nc1ccc2c(c1)C(=O)C(=O)c1ccccc1-2` [compound 1, Tyrosine Phosphatase CD45 inhibitor], the “IC50 values confirmed in coupled assay” value in assay [1] is given as “confirmed”.
